Reference: patent US7575857B2, “Screening method for identifying protective substances for treating neurodegenerative and/or ischemic disorders” (SYGNIS Bioscience GmbH & Co. KG, priority 2002, dated 2009)
Several values for one entry are separate records, joined by “and”; a condition that tells them apart may be missing. Equal values may be shown once.

Assays:
beta globin = beta globin induction in the animals of the neuroglobin experiment; format: in vivo; settings: same animals as neuroglobin test, 5000 units/kg i.p.
From the text: (§1) However, it has important biochemical characteristics which fundamentally distinguish it from the globins, e.g. a far higher oxygen affinity (Dewilde et al. (2001), Journal of Biological Chemistry, 276, 38949-55). Neuroglobin is neuroprotective, although the mechanism here is not known (Sun et al. (2001), Proc. Natl. Acad. Sci. USA, 98, 15306-11, Venis (2001), Lancet, 358, 2055, Sun et al. (2003), Proc. Natl. Acad. Sci. USA, 5, 5). To determine whether neuroglobin possibly also plays a role in erythropoetin-conveyed neuroprotection, the relative content of neuroglobin mRNA after EPO administration was determined using relative quantitative PCR in comparison with cyclophilin. 5000 units of EPO/kg body weight were applied i.p. and the animals were killed after transcardial perfusion. RNA and cDNA were obtained using standard methods. From serial dilutions of the cDNA (3 times serial dilutions), the levels of cyclophilin and neuroglobin were determined and the ratio of neuroglobin/cyclophilin in the sham-treated animals set at 1. The standard deviations in the following values relate to measurements at different dilutions (n=4) and represent the measurement accuracy. The primers used were: ng1_m_LC—1s: […] (SEQ ID NO: 14), ng1_m_LC—1as: […] (SEQ ID NO: 15) for neuroglobin. […]

[1] = test system: δ-aminolaevulinic acid synthase (ALAS) mRNA; experiment: Quantitative PCR for ALAS mRNA in brain of EPO-injected animals; format: in vivo
From the text: The primer sequences used and PCR conditions were, for ALAS:
(annealing temperature: 60 C.; measurement temperature: 83 C.; 45 cycles), and for DALDH: Daldh_m—1 s: […] (SEQ ID NO:12), daldh_m—1 as: […] (SEQ ID NO: 13) (annealing temperature: 60 C.; measurement temperature: 85 C.; 45 cycles).
Through the daily administration of this dosage of EPO for 7 days, induction factors of up to 130 times were achieved: sham: 1±0.64; EPO-injected animal 1 (Epo—1)=11.67±5.46; EPO-injected animal 2 (Epo—2)=118.93±31.02; EPO-injected animal 3 (Epo—3)=44.88±15.15; EPO-injected animal 4 (Epo—4)=129.47±8.77 (FIG. 18).

neuroglobin mRNA = experiment: Quantitative PCR for neuroglobin mRNA after erythropoetin injection; format: in vivo; settings: 5000 units/kg i.p., single injection
From the text: as §1

alpha globin = alpha globin induction in the animals of the neuroglobin experiment; format: in vivo; settings: same animals as neuroglobin test, 5000 units/kg i.p.
From the text: as §1

haemoglobin = experiment: Haemoglobin concentration in brain homogenate (rapid cyanhaemiglobin method) after one-off i.p. erythropoetin injection; format: in vivo, mice; settings: 5000 units/kg i.p., 24 hours after injection, perfused brain, n=3
Method: In continuation of Example 3, the haemoglobin concentration was also determined in the brain of mice to whom intraperitoneal erythropoetin (Erypo made by the company Janssen) had been administered (5000 units/kg body weight). After injection of EPO, the mice were terminally anaesthetised after 24 hours by injection with Rompun/Ketanest, and the blood was rinsed out of the vascular system of the brain by transcardial perfusion with 40 ml Hanks balanced salt solution (HBSS). […] The protein content of the samples was determined according to the Bradford method (Bradford, 1976, Anal. Biochem. 72, 248-254). The haemoglobin concentration was measured with the rapid cyanhaemiglobin method (van Kampen and Zijlstra, 1961, Clin. Chim. Acta 6, 538-544). […] The extinction at 546 nm was then measured and multiplied by 36.7 to obtain the concentration in g/dl. These values were then related to the protein concentration/volume brain tissue, giving the following values (including the measured transgenic animals from Example 3): control animals: 32.54±17.51 μg/mg brain protein (n=10); EPO-transgenic animals (line tg6): 79.00±32.12 (n=13); EPO-injected animals (24 hours after injection): 77.14±13.51 μg/mg brain protein (n=3). […]

[2] = 5000 units/kg i.p. daily for 7 days

Erythropoietin [EPO]
beta globin induction (beta globin): approx. 10 times | ALAS induction factors [1, 2]: up to 130 times | ALAS mRNA level (sham = 1), individual animals [1, 2]: 11.67±5.46 and 118.93±31.02 and 44.88±15.15 and 129.47±8.77 | ALAS mRNA level (sham = 1), individual animals ([1]; one-off dose 5000 units/kg i.p., 24 h): 10.07±0.00 and 8.76±0.18 and 14.69±0.27 | ALAS induction ([1]; same animals as neuroglobin test, 5000 units/kg i.p.): approx. 10 times | ratio neuroglobin/cyclophilin mRNA (sham-treated set at 1), individual animals (neuroglobin mRNA): no induction and 1.01±0.15 and 0.99±0.15 and 1.04±0.13 | alpha globin induction (alpha globin): approx. 14 times | haemoglobin concentration related to brain protein (haemoglobin): 77.14±13.51 μg/mg brain protein
